Source: article PMC11258883 (Protein Science : A Publication of the Protein Society, 2024)

Biological target: T1, MenD (Escherichia coli, UniProt P17109)
T1 sequence (P17109 1-556): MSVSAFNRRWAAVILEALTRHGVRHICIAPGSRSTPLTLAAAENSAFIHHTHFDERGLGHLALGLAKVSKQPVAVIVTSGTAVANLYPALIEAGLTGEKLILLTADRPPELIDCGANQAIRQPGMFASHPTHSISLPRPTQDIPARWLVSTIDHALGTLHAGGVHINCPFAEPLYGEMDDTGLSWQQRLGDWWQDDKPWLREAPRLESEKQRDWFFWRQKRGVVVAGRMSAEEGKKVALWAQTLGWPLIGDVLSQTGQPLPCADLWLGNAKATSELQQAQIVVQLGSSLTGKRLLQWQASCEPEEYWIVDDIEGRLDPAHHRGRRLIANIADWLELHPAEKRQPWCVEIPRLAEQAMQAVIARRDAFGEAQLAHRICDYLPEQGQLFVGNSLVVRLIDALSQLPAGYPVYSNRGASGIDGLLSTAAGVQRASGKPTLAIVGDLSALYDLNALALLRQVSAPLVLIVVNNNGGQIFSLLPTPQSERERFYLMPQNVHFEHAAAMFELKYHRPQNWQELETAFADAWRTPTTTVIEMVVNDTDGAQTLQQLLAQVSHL
Experiment: MenD activity assay, OD278 decrease
Assay type: biochemical
Conditions: 66 nM MenD, 50 μM thiamine pyrophosphate, 660 μM 2-ketoglutarate, 5 mM MgSO4, pH 8.0; chorismate:isochorismate equilibrium mixture

C=C(O[C@H]1C=CC=C(C(=O)O)[C@@H]1O)C(=O)O [isochorismate]
MenD activity assay, OD278 decrease: initial velocities were measured as decrease in OD278 upon MenD consumption of isochorismate
